Here are results for four compounds from US5149793A, “Exo-3',4'-O-benzylidene-3"-demethylchartreusin and its salts” (Ishihara Sangyo Kaisha, Ltd., priority 1989, dated 1992).

One may read the IC50 as the concentration that inhibits the measured activity by half. One may read the MIC as the smallest concentration in the dilution series that meets the test's criterion for growth inhibition. A low value points to greater potency.

Each structure is given as a SMILES string. Values after ≈ are worked out from the molar mass of the structure shown. Read-outs that look alike come from different tables or passages of the source.

One data set relates to B-16 melanoma cells. The data set can be described thus: Antitumorous activity: growth inhibition of B-16 melanoma cells (Test Example 1). The class given is cell-based, mice. Particulars: Mus musculus, B16, 1 hour drug exposure at 37° C., then 48 hours incubation. The method, then: B-16 melanoma cells were suspended in RPMI 1640 medium containing 5% fetal bovine serum in a concentration of 4×10^4 cells/ml. The resulting suspension was placed in the 12 wells (1 ml/well) of a plate-cum-wells, wherein preliminary incubation was then carried out for 24 hours. A test drug was dissolved in a mixture of dimethyl sulfoxide and a culture medium of 5% serum - RPMI 1640 (1:3 in volume ratio). Thus, drug solutions having various respective drug concentrations were prepared. 20 μl each of these drug solutions were respectively added to the wells of the plate. The resulting drug-added suspensions were subjected to incubation at 37° C. for 1 hour. Subsequently, the incubated medium were removed from the respective wells, which were then washed once with the same culture medium as mentioned above. Thereafter, the same culture medium as mentioned above was freshly placed in each of the wells of the plate, followed by incubation at 37° C. for 48 hours.
The number of cells in each well was counted according to a customary method using a Coulter counter.
The values of growth control rate in the members of each drug-treated group, which members corresponding to the respective wells of the plate were culture broths respectively treated with drug solutions having various respective drug concentrations, were calculated by comparison with the growth rate of the drug-untreated group. The inhibitory concentration of each test drug in which the growth control rate was 50% (IC50) was calculated from the above-calculated values of growth control rate.

Data set [1] concerns Bacillus megaterium IFO 12108. The data set is described as follows: Antibacterial activity, agar dilution method (Test Example 2). The class given is cell-based. To be noted: Priestia megaterium, IFO12108. From the text: (§1) The minimum inhibitory concentrations (MIC) of exo-BDMC against growth of various microorganisms were examined according to an agar dilution method.
On the technique in general: In agar dilution the substance is mixed into plates at graded concentrations.

Data set [2] deals with Bacillus subtilis PCI 219. The data set is described as above. The class given is cell-based. To be noted: PCI219.
Description: as §1

For data set [3], the system named is Flavobacterium meningosepticum IFO 12535. The data set is described as above. To be noted: Elizabethkingia meningoseptica, IFO12535. The class given is cell-based.
Description: as §1

Data set [4] concerns Staphylococcus aureus 209P. The data set is described as above. The class given is cell-based.
Description: as §1

The subject of data set [5] is cells of experimental tumors of mice and the like, such as P-388 leukemia, L-1210 leukemia, B-16 melanoma, M-5076 sarcoma, Colon 26, and Lewis lung carcinoma. The data set can be described thus: Activity against cells of experimental tumors (general statement). To be noted: exo-BDMC or its salts; result in words. The class given is cell-based.
For data set [6], the system named is Gram-positive bacteria or Gram-negative bacteria. The data set is described as follows: Growth inhibition of bacteria (general statement). To be noted: exo-BDMC or its salts; result in words. The format is cell-based.
A short description of data set [7]: Antitumorous activity (general statement). Particulars: result in words.
Data set [8] in a line: Antibacterial activity (general statement). To be noted: result in words.
On the set-up of data set [9]: species or system mice. To be noted: mouse, in vivo. How it is done: Exo-6-O-(N-trifluoroacetyl-β-aminoisobutyryl)-3',4'-O-benzylidenechartreusin was intravenously injected in a dose of 40 mg/kg into 160 DDY mice. 300 g of feces excreted within 24 hours after the intravenous injection were collected and ground down in a mortar. 1 liter of a mixed solvent (methanol:chloroform=1:1 in volume ratio) was added to the ground-down feces. The resulting mixture was stirred at 60° C. for 30 minutes to effect extraction, followed by separation of insolubles by filtration. The separated insolubles were admixed with 700 ml of the same mixed solvent as mentioned above to effect extraction again. The two resulting extracts were put together and concentrated under reduced pressure to obtain 9 g of crude exo-BDMC. The crude exo-BDMC was subjected to a purification operation by silica gel column chromatography (developing solvent: chloroform+methanol). The above-mentioned purification operation was repeated. An exo-BDMC-containing fraction obtained by the foregoing purification procedure was concentrated and then recrystallized from a mixed solvent (chloroform:methanol:ethyl acetate=2:1:1 in volume ratio) to obtain 50 mg of exo-BDMC. […]

The conditions of data set [10]: result in words; already known; cited from earlier work.
For data set [11] the following is noted: result in words; already known; cited from earlier work. The source holds these as a separate data set.

Consider `Cc1ccc2oc(=O)c3c(O)c4cccc(O[C@@H]5O[C@H](C)[C@@H]6OC(c7ccccc7)O[C@@H]6[C@H]5O[C@H]5O[C@H](C)[C@H](O)[C@H](O)[C@H]5O)c4c4oc(=O)c1c2c34` (stereo partly drawn) [exo-BDMC, exo-3',4'-O-benzylidene-3"-demethylchartreusin], for which the IC50 in the data set on B-16 melanoma cells amounted to 0.9 µg/mL (≈ 1.26 µM). The MIC in data set [1] stood at 1.56 µg/mL (≈ 2.18 µM); in data set [2], 1.56 µg/mL (≈ 2.18 µM); in [3] it was 1.56 µg/mL (≈ 2.18 µM); in [4], 3.13 µg/mL (≈ 4.38 µM). The “activities against cells of experimental tumors” value in data set [5] is “exhibit activities against cells of experimental tumors”. Further, the “capacity of inhibiting growth of bacteria” value in data set [6] is “strongly inhibiting growth of either Gram-positive bacteria or Gram-negative bacteria”. Besides, the antitumorous activity entry in [7] was “has antitumorous and antibacterial activities”. In [8], the antibacterial activity entry was “has antitumorous and antibacterial activities”. Also, the “presence in the excreta of mice (metabolite of exo-3',4'-O-benzylidenechartreusin derivatives)” value in [9] is recorded as “exists in the excreta of mice”.

In the case of `CO[C@H]1[C@@H](O)[C@@H](C)O[C@H](O[C@H]2[C@H](Oc3cccc4c(O)c5c(=O)oc6ccc(C)c7c(=O)oc(c34)c5c67)O[C@H](C)[C@H](O)[C@@H]2O)[C@@H]1O` [chartreusin], the IC50 in the data set on B-16 melanoma cells was determined as 9.2 µg/mL (≈ 14.4 µM). The antitumorous activity result in data set [10] is “has antibacterial and antitumorous activities”. For the same compound, the antibacterial activity entry in data set [11] is “has antibacterial and antitumorous activities”.

In the data set on B-16 melanoma cells, `CO[C@H]1[C@@H](O)[C@@H](C)O[C@H](O[C@H]2[C@H](Oc3cccc4c(O)c5c(=O)oc6ccc(C)c7c(=O)oc(c34)c5c67)O[C@H](C)[C@@H]3OC(c4ccccc4)O[C@@H]32)[C@@H]1O` (stereo partly drawn) [exo-BC, Exo-3',4'-O-benzylidenechartreusin, reference compound] showed an IC50 of 2.1 µg/mL (≈ 2.88 µM).

Take `Cc1ccc2oc(=O)c3c(O)c4cccc(O[C@@H]5O[C@H](C)[C@H](O)[C@H](O)[C@H]5O[C@H]5O[C@H](C)[C@H](O)[C@H](O)[C@H]5O)c4c4oc(=O)c1c2c34` [3"-DMC, 3"-demethylchartreusin]: half-maximal inhibition with B-16 melanoma cells (IC50) was put at 11 µg/mL (≈ 17.6 µM). Moreover, the antitumorous activity entry in data set [7] was “has antitumorous and antibacterial activities”. Besides, the antibacterial activity entry in [8] is “has antitumorous and antibacterial activities”.
